# Assay results: US20230159931A1, “TARGETING THE PALMOTYLATION/DEPALMOTYLATION CYCLE TO TREAT INFLAMMATORY DISEASES” (CORNELL UNIVERSITY, priority 2020, published 2023)
# Assays:
# [1] = Tolerability of ML349 in mice; format: in vivo; conditions: 50 mg kg^−1, mice
# Text: (§1) The inventors tested whether the pharmacological inhibition of APT2 with ML349 could reduce dextran sulfate sodium (DSS)-induced colitis in mice, an experimental model for IBD.
# [2] = test system: DSS-induced colitis in mice; test: DSS-induced mouse colitis model; format: in vivo
# Method: FIGS. 4A-4I. The STAT3 palmitoylation-depalmitoylation cycle aggravates colitis. (A), (B) Human PBMCs from 26 healthy participants (Ctrl), 24 patients with Crohn's disease (CD; 7 remission stage (rem.) and 17 active stage (act.)) and 10 patients with ulcerative colitis (UC; 1 remission stage and 9 active stage) were extracted. LYPLA2 and ZDHHC7 mRNA levels were analysed using qPCR. The relative p-STAT3 levels were quantified by western blots. c, d, The correlations between IL17A (C) or p-STAT3 (D) and the mRNA levels of the indicated genes in 34 patients with IBD. (E), (F), C57BL/6J mice were treated with 2.5% DSS in drinking water ad libitum and ML349 was intraperitoneally injected daily on the day that DSS treatment started. Body weight changes (E) and TH17 cell levels in the spleen (F) were evaluated. (G), (H), Wild-type and DHHC7-knockout mice were treated with 2.5% DSS in drinking water ad libitum. Body weight changes (G) and TH17 cell levels in the spleen (H) were evaluated. (I), Model of the regulation of STAT3 by the palmitoylation-depalmitoylation cycle. Palmitoylation of STAT3 by DHHC7 promotes the membrane recruitment and phosphorylation of STAT3. APT2 promotes the nuclear translocation of p-STAT3 by selectively depalmitoylating p-STAT3 over STAT3. The palmitoylation-depalmitoylation cycle drives the membrane localization and phosphorylation of STAT3, and the nuclear translocation of p-STAT3. The direction of the cycle is ensured by the preference of APT2 for p-STAT3 over STAT3. Data are expressed as the mean±s.e.m. *P<0.05; **P<0.01.
# The mouse protocol 2019-0009 was approved by the Institutional Animal Care and Use Committee (IACUC) at Cornell University. All animals were housed under specific-pathogen-free conditions following the regulations of the IACUC. Mice (6-8 weeks old) were randomized into different groups (8 mice per group, mixed sex) as indicated. Colitis was induced by treating with 3.0% DSS (MP Biomedicals) in their drinking water ad libitum. ML349 solution was intraperitoneally injected into the mice at the indicated doses every other day. All mice were euthanized and the spleens were isolated to detect T cells. The distance from caecum to anus was measured. The colon was fixed in 4% paraformaldehyde for pathological examination. The study was not blinded.
# as §1
# SMAD2 S-palmitoylation = SMAD2 S-palmitoylation in HEK293T cells treated with APT inhibitors (Alk14, in-gel fluorescence); format: cell-based, human; conditions: 10 μM APT inhibitors for 24 hours; HEK293T cells with HA-DHHC7 and Flag-SMAD2
# Text: FIGS. 7A-7G. APT2 is the depalmitylase of SMAD2 and C-terminal phosphorylation of SMAD2 is S-palmitoylation independent. (A) C-terminal phosphorylation (Ser465/Ser467) levels of Flag-SMAD2 (p-SMAD2(C2)) in HEK293T cells expressing HA-tagged mouse DHHC1-23. SMAD2 was pulled down with Flag beads and subjected to western blot analyses. (B) HEK293T cells were transfected with HA-tagged DHHC7 and Flag-SMAD2 WT and C41/81S mutant plasmid and treated with Alk14. The S-palmitoylation level of immunoprecipitated SMAD2 was visualized by in-gel fluorescence and the p-SMAD2(C2) level was detected by western blot analyses. […] The S-palmitoylation level of immunoprecipitated SMAD2 was visualized by in-gel fluorescence. […] The cells were labeled with Alk14 and the S-palmitoylation of SMAD2 was determined by in-gel fluorescence. […] The cells were labeled with Alk14 and the S-palmitoylation of SMAD2 was determined by in-gel fluorescence and the p-SMAD2(C2) level was detected by western blot analyses. […]
# Cells were treated with 50 μM palmitic acid analogue Alkyne 14 (Alk14) for 5 h and the collected and lysed in 1% NP-40 lysis buffer (25 mM Tris-HCl pH 8.0, 150 mM NaCl, 10% glycerol, 1% Nonidet P-40) with protease inhibitor cocktail. […] The protein concentration was determined by Bradford assay (23200, Thermo Fisher). […]
# [3] = DSS treatment followed by ML349 treatment, intraperitoneal
# [4] = pretreatment with ML349 followed by treatment with DSS
structure (smiles),measurement,setting,value
COc1ccc(N2CCN(C(=O)c3cc4c(s3)-c3ccccc3S(=O)(=O)C4)CC2)cc1 [ML349],tolerability,[1],well tolerated
same,colon shortening,[2]; [3],significantly attenuated
same,weight loss,[2]; [3],significantly attenuated
same,levels of TH17 cells in mouse splenocytes,"[2]; DSS-treated mice, spleen",significantly decreased
same,survival rate,[2]; [4],increased the survival rate
same,weight loss,[2]; [4],significantly attenuated weight loss
same,SMAD2 S-palmitoylation signal,SMAD2 S-palmitoylation,significantly enhanced
